Reference: ChEMBL document CHEMBL5380843 (J Med Chem, 2023)

What was measured:
[1] = tested on: Human immunodeficiency virus 1; test: Antiviral activity against wild type HIV-1 IIIB infected in human MT4 cells assessed as protection against virus-induced cytopathic effect incubated for 5 days by MTT assay; format: functional, organism-based; settings: Human immunodeficiency virus 1, IIIB, MT4, 120 h
[2] = Selectivity index, ratio of CC50 for cytotoxicity against human MT4 cells to EC50 for antiviral activity against wild type HIV-1 IIIB infected in human MT4 cells; format: toxicity, cell-based; settings: read-out: Ratio CC50/EC50
[3] = Cytotoxicity against human MT4 cells assessed as reduction in cell viability incubated for 5 days by MTT assay; format: toxicity, cell-based; settings: time 5 day
[4] = tested on: Human immunodeficiency virus 1; test: Antiviral activity against wild type HIV-1 IIIB harboring reverse transcriptase […] mutant infected in human MT4 cells assessed as protection against virus-induced cytopathic effect incubated for 5 days by MTT assay; format: functional, organism-based; settings: Human immunodeficiency virus 1, IIIB, MT4, 120 h
[5] = Resistant factor, ratio of EC50 for antiviral activity against HIV-1 IIIB harboring reverse transcriptase […] mutant to EC50 for antiviral activity against wild type HIV-1 IIIB; format: functional
[6] = tested on: Human immunodeficiency virus 1; test: Antiviral activity against wild type HIV-1 IIIB harboring reverse transcriptase K103N mutant infected in human MT4 cells assessed as protection against virus-induced cytopathic effect incubated for 5 days by MTT assay; format: functional, organism-based; settings: Human immunodeficiency virus 1, IIIB, MT4, 120 h
[7] = Resistant factor, ratio of EC50 for antiviral activity against HIV-1 IIIB harboring reverse transcriptase K103N mutant to EC50 for antiviral activity against wild type HIV-1 IIIB; format: functional
[8] = tested on: Human immunodeficiency virus 1; test: Antiviral activity against wild type HIV-1 IIIB harboring reverse transcriptase Y181C mutant infected in human MT4 cells assessed as protection against virus-induced cytopathic effect incubated for 5 days by MTT assay; format: functional, organism-based; settings: Human immunodeficiency virus 1, IIIB, MT4, 120 h
[9] = Resistant factor, ratio of EC50 for antiviral activity against HIV-1 IIIB harboring reverse transcriptase Y181C mutant to EC50 for antiviral activity against wild type HIV-1 IIIB; format: functional
[10] = tested on: Human immunodeficiency virus 1; test: Antiviral activity against wild type HIV-1 IIIB harboring reverse transcriptase Y188L mutant infected in human MT4 cells assessed as protection against virus-induced cytopathic effect incubated for 5 days by MTT assay; format: functional, organism-based; settings: Human immunodeficiency virus 1, IIIB, MT4, 120 h
[11] = Resistant factor, ratio of EC50 for antiviral activity against HIV-1 IIIB harboring reverse transcriptase Y188L mutant to EC50 for antiviral activity against wild type HIV-1 IIIB; format: functional
[12] = tested on: Human immunodeficiency virus 1; test: Antiviral activity against wild type HIV-1 IIIB harboring reverse transcriptase E138K mutant infected in human MT4 cells assessed as protection against virus-induced cytopathic effect incubated for 5 days by MTT assay; format: functional, organism-based; settings: Human immunodeficiency virus 1, IIIB, MT4, 120 h
[13] = Resistant factor, ratio of EC50 for antiviral activity against HIV-1 IIIB harboring reverse transcriptase E138K mutant to EC50 for antiviral activity against wild type HIV-1 IIIB; format: functional
[14] = molecular target: Human immunodeficiency virus type 1 reverse transcriptase (Human immunodeficiency virus 1, UniProt Q72547); test: Inhibition of recombinant wild type HIV-1 reverse transcriptase using DNA/RNA as substrate incubated for 40 mins by Pico-green dye based spectrofluorometric analysis

Structure (SMILES)	EC50 [1] [nM]	selectivity ratio [2]	CC50 at 120 h [3] [nM]	EC50 [4] [nM]	Ratio EC50 [5]	EC50 [6] [nM]	Ratio EC50 [7]	EC50 [8] [nM]	Ratio EC50 [9]	EC50 [10] [nM]	Ratio EC50 [11]	EC50 [12] [nM]	Ratio EC50 [13]	IC50 [14] [nM]
Cc1cc(-c2ccc(C#N)cc2)cc(C)c1Oc1nc(Nc2ccc(C#N)cc2)ncc1C(=O)NC1CCCC1	145	> 1630	> 236000	1780	12	960	6.6	3350	23	4650	32	573	4	329
COCCNC(=O)c1cnc(Nc2ccc(C#N)cc2)nc1Oc1c(C)cc(-c2ccc(C#N)cc2)cc1C	5	28100	161000	74	13	33	5.8	58	10	190	33	20	3.5	128
Cc1cc(-c2ccc(C#N)cc2)cc(C)c1Oc1nc(Nc2ccc(C#N)cc2)ncc1C(=O)NC(C)C	37	1750	64700	144	3.9	82	2.2	334	9	563	15	71	1.9	199
COc1cc(-c2ccc(C#N)cc2)ccc1Oc1nc(Nc2ccc(C#N)cc2)ncc1C(N)=O	18	> 15300	> 276000	6	0.3	4	0.2	136	7.6	191	11		1	28
N#Cc1ccc(Nc2ncc(C(N)=O)c(Oc3ccc(-c4ccc(C#N)cc4)cc3Cl)n2)cc1	102	> 2650	> 270000	76000	746	5530	54	129000	1261	219000	2150	821	8	28
CCCNC(=O)c1cnc(Nc2ccc(C#N)cc2)nc1Oc1c(C)cc(-c2ccc(C#N)cc2)cc1C	13	14700	86600	55	4.2	31	2.4	196	15	275	21	39	3	191
Cc1cc(-c2ccc(C#N)cc2)ccc1Oc1nc(Nc2ccc(C#N)cc2)ncc1C(N)=O	31	> 9000	> 280000	994	32	94	3	4340	140	7120	230	115	3.7	19
N#Cc1ccc(Nc2ncc(C(N)=O)c(Oc3ccc(-c4ccc(C#N)cc4)cc3F)n2)cc1	162	> 1720	> 278000	231000	1429	63400	391	> 278000	>1713	> 278000	>1713	1610	9.9	25
CNC(=O)c1cnc(Nc2ccc(C#N)cc2)nc1Oc1c(C)cc(-c2ccc(C#N)cc2)cc1C	3	> 12700	> 42200	9	2.7	5	1.5	27	8.2	34	10	6	1.8	56
N#Cc1ccc(Nc2nccc(Oc3ccc4cc(C#N)ccc4c3Br)n2)cc1		181000	283000											
